Source: US20090076044A1, “VEGFR INHIBITORS CONTAINING A ZINC BINDING MOIETY” (priority 2007, published 2009)
Like-named read-outs stand apart in the source and are kept apart here.

Assays:
Format in all cases: biochemical
[1] = tested on: HDAC; test: HDAC fluorimetric assay kit (HeLa nuclear extract)
Experimental: (b) An In Vitro Assay which Determines the Ability of a Test Compound to Inhibit HDAC Enzymatic Activity.
HDAC inhibitors were screened using an HDAC fluorimetric assay kit (AK-500, Biomol, Plymouth Meeting, Pa.). Test compounds were dissolved in dimethylsulphoxide (DMSO) to give a 20 mM working stock concentration. Fluorescence was measured on a WALLAC Victor 2 plate reader and reported as relative fluorescence units (RFU). Data were plotted using GraphPad Prism (v4.0a) and IC50's calculated using a sigmoidal dose response curve fitting algorithm. Each assay was setup as follows: Defrosted all kit components and kept on ice until use. Diluted HeLa nuclear extract 1:29 in Assay Buffer (50 mM Tris/Cl, pH 8.0, 137 mM NaCl, 2.7 mM KCl, 1 mM MgCl2). Prepared dilutions of Trichostatin A (TSA, positive control) and tested compounds in assay buffer (5× of final concentration). Diluted Fluor de Lys™ Substrate in assay buffer to 100 uM (50 fold=2× final). Diluted Fluor de Lys™ developer concentrate 20-fold (e.g. 50 μl plus 950 μl Assay Buffer) in cold assay buffer. Second, diluted the 0.2 mM Trichostatin A 100-fold in the 1× Developer (e.g. 10 μl in 1 ml; final Trichostatin A concentration in the 1× Developer=2 μM; final concentration after addition to HDAC/Substrate reaction=1 μM). Added Assay buffer, diluted trichostatin A or test inhibitor to appropriate wells of the microtiter plate. Added diluted HeLa extract or other HDAC sample to all wells except for negative controls. Allowed diluted Fluor de Lys™ Substrate and the samples in the microtiter plate to equilibrate to assay temperature (e.g. 25 or 37° C. Initiated HDAC reactions by adding diluted substrate (25 μl) to each well and mixing thoroughly. Allowed HDAC reactions to proceed for 1 hour and then stopped them by addition of Fluor de Lys™ Developer (50 μl). Incubated plate at room temperature (25° C.) for 10-15 min. Read samples in a microtiter-plate reading fluorimeter capable of excitation at a wavelength in the range 350-380 nm and detection of emitted light in the range 440-460 nm.

[2] = target: T1, human HER2 (Homo sapiens, UniProt P04626); test: HER2 enzymatic activity assay
T1 construct: human HER2 amino acids 679-1255; host or cells: Sf9 insect cells (baculovirus)
Experimental: (d) An In Vitro Assay which Determines the Ability of a Test Compound to Inhibit HER2 Enzymatic Activity.
10 nM HER2 and 0.1 mg/ml polyEY were placed in the reaction buffer and 2 mM MnCl2, 1 μM ATP and 1% DMSO final were added. The reaction mixture was incubated for 2 hours at room temperature.
Purity>90% by SDS PAGE and Coomassie blue staining. MW=91.6 kDa. Specific Activity of 40 U/mg, where one unit of activity is defined as 1 nmol phosphate incorporated into 30 ug/ml Poly (Glu:Tyr)4:1 substrate per minute at 30° C. with a final ATP concentration of 100 μM. Enzyme is in 25 mM Tris-HCl, pH 8.0, 100 mM NaCl, 0.05% Tween-20, 50% glycerol, 10 mM reduced glutathione, and 3 mM DTT.

[3] = target: T2, human VEGFR2 (Homo sapiens, UniProt P35968); test: VEGFR2/KDR radioisotope kinase assay
T2 construct: kinase domain (amino acids 790 to end) fragment; 6xHis (N); made in house; host or cells: Sf21 insect cells (baculovirus)
Experimental: (a) An In Vitro Assay which-Determines the Ability of a Test Compound to Inhibit a Receptor Tyrosine Kinase.
The ability of compounds to inhibit receptor kinase (VEGFR2 and PDGFR-beta) activity was assayed using standard radioisotope assay for kinase. […] The proteins were purified using Ni2+/NTA agarose affinity column to purity
>85% as determined by coomassie blue-stained SDS-PAGE gel. For VEGFR2/KDR assay, p33 ATP tracers were incubated with purified recombinant VEGFR2 kinase to monitor the enzyme activity. In this assay, reactions were carried out in the presence of 0.1 mg/ml VEGFR2 kinase and 0.33 mg/ml myelin basic protein. The reaction was carried out at 30° C. for 120 minutes in a final assay condition contained 50 mM Tris-HCl, pH 7.5, 300 mM NaCl, 0.1 mM EGTA, 0.03% Brij 35, 270 mM sucrose, 1 mM benzamidine, 0.2 mM PMSF, 0.1% 2-mercaptoethanol and 100 μM ATP. An equal volume of 25% TCA was added to stop the reaction and precipitate the labeled proteins. Precipitated proteins were trapped onto glass fiber B filterplates and excess unlabeled p33 ATP was washed off. The plates were allowed to air-dry prior to the addition of 30 uL/well of Packard Microscint 20. The amount of incorporated isotope was measured using a Perkin Elmer TopCount plate reader. Different concentrations of compounds were added to reaction to assess the activity of compounds to inhibit VEGFR2 kinase. IC50 was calculated using Prism software with sigmoidal dose-response curve fitting.

[4] = target: T3, human c-Met (Homo sapiens, UniProt P08581); test: c-Met radioisotope kinase assay; conditions: 1 μM ATP
T3 construct: recombinant human catalytic domain (amino acids 956-1390); His; host or cells: insect cells
Experimental: (c) An In Vitro Assay which Determines the Ability of a Test Compound to Inhibit c-MET Enzymatic Activity.
For c-Met assay, p33 ATP tracers were incubated with purified recombinant c-Met kinase to monitor the enzyme activity. C-Met (Accession number: GenBank NP_000236.2) is characterized as follows: recombinant human catalytic domain (amino acids 956-1390) with histidine-tagged, expressed in insect cells. Purity≧90% by SDS-PAGE and Coomassie blue staining. MW=53.7 kDa. Specific Activity of 373 nmole of phosphate transferred to myelin basic protein (MBP) per minute per mg of total protein at 30° C. Activity determined at a final protein concentration of 2 μg/mL. Enzyme at 0.41 mg/ml in 20 mM Tris (pH 7.5), 100 mM NaCl, 0.5 mM EDTA, 0.05% Triton X-100, 2 mM DTT, 50% Glycerol. In this assay, reactions were carried out in the presence of 10 nM c-Met kinase and 5 uM myelin basic protein. The reaction was carried out at 30° C. for 120 minutes in a final assay condition contained 20 mM HEPES, pH 7.5, 10 mM MgCl2, 1 mM EGTA, 0.02% Brij 35, 0.02 mg/ml BSA, 0.1 mM Na3VO4, 2 mM DTT and 1 μM ATP. An equal volume of 25% TCA was added to stop the reaction and precipitate the labeled proteins. Precipitated proteins were trapped onto glass fiber B filterplates and excess unlabeled p33 ATP was washed off. The plates were allowed to air-dry prior to the addition of 30 uL/well of Packard Microscint 20. The amount of incorporated isotope was measured using a Perkin Elmer TopCount plate reader. Different concentrations of compounds were added to reaction to assess the activity of compounds to inhibit c-Met kinase. IC50 was calculated using Prism software with sigmoidal dose-response curve fitting.

[5] = 1 μM ATP, read-out: HER2/ErbB IC50
[6] = 100 μM ATP, read-out: VEGFR2 IC50

T3 sequence (P08581 956-1390): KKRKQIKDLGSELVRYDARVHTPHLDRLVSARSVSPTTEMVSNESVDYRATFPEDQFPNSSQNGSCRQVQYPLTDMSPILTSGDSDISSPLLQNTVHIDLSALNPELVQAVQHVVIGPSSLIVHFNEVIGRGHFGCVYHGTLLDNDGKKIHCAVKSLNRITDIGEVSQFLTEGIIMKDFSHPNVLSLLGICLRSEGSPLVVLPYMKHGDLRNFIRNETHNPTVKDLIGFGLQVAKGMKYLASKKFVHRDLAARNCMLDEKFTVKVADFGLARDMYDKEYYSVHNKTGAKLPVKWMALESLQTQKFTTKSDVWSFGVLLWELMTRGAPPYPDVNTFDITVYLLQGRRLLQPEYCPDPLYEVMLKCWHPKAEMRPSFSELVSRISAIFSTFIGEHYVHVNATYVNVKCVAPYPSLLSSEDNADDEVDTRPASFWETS
T1 sequence (P04626 679-1255): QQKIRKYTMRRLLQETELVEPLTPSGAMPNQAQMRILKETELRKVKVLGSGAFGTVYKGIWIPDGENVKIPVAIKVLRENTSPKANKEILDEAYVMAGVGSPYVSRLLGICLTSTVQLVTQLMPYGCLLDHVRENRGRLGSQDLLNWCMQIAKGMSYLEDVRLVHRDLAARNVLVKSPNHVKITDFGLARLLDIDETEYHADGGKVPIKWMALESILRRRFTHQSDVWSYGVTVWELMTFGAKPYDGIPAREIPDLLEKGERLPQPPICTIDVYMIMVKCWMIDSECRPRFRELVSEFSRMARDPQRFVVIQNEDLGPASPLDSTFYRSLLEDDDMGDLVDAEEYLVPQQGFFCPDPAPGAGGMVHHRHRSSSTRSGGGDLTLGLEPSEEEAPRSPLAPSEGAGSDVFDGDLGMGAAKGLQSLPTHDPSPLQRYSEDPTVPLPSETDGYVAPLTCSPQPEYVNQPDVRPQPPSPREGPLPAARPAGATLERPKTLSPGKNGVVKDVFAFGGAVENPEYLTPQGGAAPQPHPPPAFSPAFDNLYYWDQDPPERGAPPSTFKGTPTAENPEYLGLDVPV
T2 sequence (P35968 790-1356 limits assumed): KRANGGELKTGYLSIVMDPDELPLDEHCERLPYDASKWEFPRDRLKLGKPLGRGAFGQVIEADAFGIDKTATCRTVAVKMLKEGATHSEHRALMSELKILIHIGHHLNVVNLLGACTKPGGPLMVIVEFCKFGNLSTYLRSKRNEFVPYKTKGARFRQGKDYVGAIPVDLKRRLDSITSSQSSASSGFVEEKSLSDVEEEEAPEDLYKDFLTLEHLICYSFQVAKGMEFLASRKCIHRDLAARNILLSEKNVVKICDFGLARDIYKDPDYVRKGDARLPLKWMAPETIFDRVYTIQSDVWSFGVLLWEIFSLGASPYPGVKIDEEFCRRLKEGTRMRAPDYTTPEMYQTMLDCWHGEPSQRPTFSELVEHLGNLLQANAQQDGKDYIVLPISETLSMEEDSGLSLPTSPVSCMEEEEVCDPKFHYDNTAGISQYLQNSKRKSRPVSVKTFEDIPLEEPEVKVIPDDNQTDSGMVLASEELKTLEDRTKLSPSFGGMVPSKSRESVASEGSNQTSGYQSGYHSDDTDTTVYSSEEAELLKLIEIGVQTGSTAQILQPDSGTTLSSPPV

| SMILES | IC50 [1] [µM] | IC50 [2, 5] [µM] | IC50 [3, 6] [µM] | IC50 [4] [µM] | IC50 [2] [µM] | IC50 [3] [µM] |
| --- | --- | --- | --- | --- | --- | --- |
| COc1cc2c(Nc3ccc4[nH]c(C)cc4c3F)ncnc2cc1OCCCCCCC(=O)NO [Compound 14, 7-(4-(4-fluoro-2-methyl-1H-indol-5-ylamino)-6-methoxy-quinazolin-7-yloxy)-N-hydroxyheptanamide] | < 0.1 | 0.1 to 1 | < 0.1 | 1 to 10 | – | – |
| Cc1cc2c(F)c(Nc3ncnc4cc(OCCCN5CCCC5)c(OCCCCC(=O)NO)cc34)ccc2[nH]1 [Compound 18, 5-(4-(4-fluoro-2-methyl-1H-indol-5-ylamino)-7-(3-(pyrrolidin-1-yl)propoxy)quinazolin-6-yloxy)-N-hydroxypentanamide] | 0.1 to 1 | < 0.1 | < 0.1 | – | – | – |
| Cc1cc2c(F)c(Nc3ncnc4cc(OCCCN5CCCC5)c(OCCCCCC(=O)NO)cc34)ccc2[nH]1 [Compound 19, 6-(4-(4-Fluoro-2-methyl-1H-indol-5-ylamino)-7-(3-(pyrrolidin-1-yl)propoxy)quinazolin-6-yloxy)-N-hydroxyhexanamide] | 0.1 to 1 | < 0.1 | < 0.1 | – | – | – |
| COc1cc2c(Oc3ccc4[nH]c(C)cc4c3F)ncnc2cc1OCCCCCC(=O)NO [Compound 10, 6-(4-(4-fluoro-2-methyl-1H-indol-5-yloxy)-6-methoxyquinazolin-7-yloxy)-N-hydroxyhexanamide] | 0.1 to 1 | 0.1 to 1 | < 0.1 | 1 to 10 | – | – |
| Cc1cc2c(F)c(Nc3ncnc4cc(OCCCN5CCCC5)c(OCCCCCCC(=O)NO)cc34)ccc2[nH]1 [Compound 20, 7-(4-(4-Fluoro-2-methyl-1H-indol-5-ylamino)-7-(3-(pyrrolidin-1-yl)propoxy)quinazolin-6-yloxy)-N-hydroxyheptanamide] | – | < 0.1 | < 0.1 | 1 to 10 | – | – |
| Cc1cc2c(F)c(Oc3ncnc4cc(OCCCN5CCCC5)c(OCCCCCCC(=O)NO)cc34)ccc2[nH]1 [Compound 17] | < 0.1 | 0.1 to 1 | < 0.1 | < 0.1 | – | – |

The remaining lines, values ahead:

| IC50 [1] [µM] | IC50 [2, 5] [µM] | IC50 [3, 6] [µM] | IC50 [4] [µM] | IC50 [2] [µM] | IC50 [3] [µM] | SMILES |
| --- | --- | --- | --- | --- | --- | --- |
| < 0.1 | < 0.1 | 1 to 10 | – | – | – | COc1cc2ncnc(Nc3ccc4occc4c3)c2cc1OCCCCCCC(=O)NO [Compound 2, 7-(4-(benzofuran-5-ylamino)-7-methoxyquinazolin-6-yloxy)-N-hydroxyheptanamide] |
| < 0.1 | < 0.1 | < 0.1 | – | – | – | COc1cc2c(Nc3ccc4[nH]c(C)cc4c3F)ncnc2cc1OCCCCCC(=O)NO [Compound 13, 6-(4-(4-fluoro-2-methyl-1H-indol-5-ylamino)-6-methoxyquinazolin-7-yloxy)-N-hydroxyhexanamide] |
| 0.1 to 1 | – | – | 1 to 10 | 1 to 10 | < 0.1 | COc1cc2c(Oc3ccc4[nH]c(C)cc4c3F)ncnc2cc1OCCCCCCC(=O)NO [Compound 11, 7-(4-(4-fluoro-2-methyl-1H-indol-5-yloxy)-6-methoxyquinazolin-7-yloxy)-N-hydroxyheptanamide] |
| 0.1 to 1 | < 0.1 | < 0.1 | 0.1 to 1 | – | – | Cc1cc2c(F)c(Oc3ncnc4cc(OCCCN5CCCC5)c(OCCCCCC(=O)NO)cc34)ccc2[nH]1 [Compound 16, 6-(4-(4-fluoro-2-methyl-1H-indol-5-yloxy)-7-(3-(pyrrolidin-1-yl)propoxy)quinazolin-6-yloxy)-N-hydroxyhexanamide] |
